In patent US12369584B2, “Fungicide mixtures” (LANXESS Deutschland GmbH, priority 2019, dated 2025):
Like-named read-outs stand apart in the source and are kept apart here.

Key:
Experiment in all cases: MIC on nutrient agar and synergistic index (Kull)
Format in all cases: cell-based
Stachybotris chartarum = test system: Stachybotris chartarum
Description: (§1) The term synergism is used when the action of a combination of antimicrobial substances is being evaluated.
(§2) The synergism found for the mixtures according to the invention can be determined via the following mathematical formula (cf. F. C. Kull, P. C. Elisman, H. D. Sylwestrowicz and P. K. Mayer, Appl. Microbiol. 9, 538 (1961):
(§3) Qa=amount of component A in the active substance mixture which achieves the desired effect, i. e. no microbial growth,
(§4) QA=amount of component A which, when used alone, suppresses the growth of the microorganisms,
(§5) Qb=amount of component B in the active substance mixture which suppresses the growth of the microorganisms,
(§6) QB=amount of component B which, when used alone, suppresses the growth of the microorganisms
(§7) If the sum of the ratios for a mixture Qa/QA+Qb/QB=1, additivity is indicated; if it is <1, synergism has occurred; a value of >1 is indicative of antagonism.
(§8) To determine the antimicrobial efficacy and synergy of active ingredients mixtures, the Minimum Inhibitory Concentration (MIC) of the active substances and their respective combinations were determined. The Minimum Inhibitory Concentration of a given antimicrobial compound or mixture is the lowest concentration expressed in […] that under defined in vitro conditions inhibits the growth of a given micro-organism (for example bacteria, mould fungi, yeasts). The growth of the microorganisms is observed on petri dishes containing a defined nutrient agar.
(§9) The antimicrobial efficacy and synergy of combinations based on TBZ, PYM and FDL were determined.

Aureobasidium pullulans = test system: Aureobasidium pullulans
Description: as §1, §2, §3, §4, §5, §6, §7, §8, §9

Paecilomyces variotii = test system: Paecilomyces variotii
Description: as §1, §2, §3, §4, §5, §6, §7, §8, §9

Alternaria alternata = test system: Alternaria alternata
Description: as §1, §2, §3, §4, §5, §6, §7, §8, §9

Chaetomium globosum = test system: Chaetomium globosum
Description: as §1, §2, §3, §4, §5, §6, §7, §8, §9

[1] = Stachybotris chartarum, nutrient agar, read-out: MIC

SMILES | MIC (Stachybotris chartarum) | MIC (Aureobasidium pullulans) | MIC (Paecilomyces variotii) | MIC (Alternaria alternata) | MIC (Chaetomium globosum) | MIC (Stachybotris chartarum; [1]) | MIC (Aureobasidium pullulans; nutrient agar, read-out: MIC) | MIC (Paecilomyces variotii; nutrient agar, read-out: MIC) | MIC (Alternaria alternata; nutrient agar, read-out: MIC) | MIC (Chaetomium globosum; nutrient agar, read-out: MIC)
N#Cc1c[nH]cc1-c1cccc2c1OC(F)(F)O2 [FDL, fludioxonil] | 5 µg/mL | 1500 µg/mL | 175 µg/mL | 5 µg/mL | 1500 µg/mL |  |  |  |  | 
Cc1cc(C)nc(Nc2ccccc2)n1 [PYM, pyrimethanil] |  |  |  |  |  | 100 µg/mL | 175 µg/mL | 90 µg/mL | 25 µg/mL | 250 µg/mL
c1ccc2[nH]c(-c3cscn3)nc2c1 [TBZ, thiabendazole] |  |  |  |  |  | 50 µg/mL | 5 µg/mL | 5 µg/mL | 250 µg/mL | 5 µg/mL
